For series [1], the system named is plasma high density lipoprotein cholesterol (HDLC). Description: Pharmacological Test - 1: increase of plasma HDLC concentration in rats after oral administration. Particulars: Wistar male rats, 300 mg/5 ml/kg/day for 2 days in 0.5%-CMC, blood taken after 20 hours fasting, relative to control group. The format is in vivo, Wistar strain male rats. On the procedure:
Seven-week-old Wistar strain male rats were used as the test animals. One test group consisting of six (6) rats. A test compound was suspended in a 0.5%-carboxymethyl cellulose (CMC) aqueous solution, thus prepared suspension containing the test compound was orally administered compulsorily by using a sonde to the rat in the amount of 300 mg/5 ml/kg/day for 2 days. Similar to the test group, to each of six (6) rats in the control group was administered with 0.5%-CMC aqueous solution without containing the test compound.
After the final administration was finished, the test rat was fasted for 20 hours, and the blood sample was taken from the rat. The concentration of plasma high density lipoprotein cholesterol (HDLC) was determined by using a measuring instrument of HDL-C kit-N (manufactured by Nihon Shoji Kabushiki Kaisha).
Increasing ratio (%) of plasma HDLC concentration performed by a test compound was calculated from the formula as follows: [formula]

The test system of another series is erythrocytes. Description: Pharmacological Test - 2 (Hemolysis test) in mice after oral administration. The format is in vivo, ddY-strain male mice. Particulars: ddY male mice, 600 mg/5 ml/kg/day for 10 days, 20 hours fasting, mean of test group divided by mean of control group. The procedure: Seven-week-old ddY-strain male mice were used as test animals. One test group consisting of six (6) mice. A test compound was suspended in a 0.5%-carboxymethyl cellulose (CMC) aqueous solution, thus prepared suspension containing the test compound was orally administered compulsorily by using a sonde to the mouse in the amount of 600 mg/5 ml/kg/day for 10 days. Similar to the above, to each of six mice in the control group was administered with 0.5%-CMC aqueous soluiton without containing the test compound.
After the final administration was finished, the mouse was fasted for 20 hours, then the mouse was subjected to dissection and the blood sample as well as the sample of the spleen were taken by enucleation. The number of the erythrocytes was counted and the weight of the spleen was measured.
The ratio of number of the erythrocytes was calculated by dividing the mean value of number of the erythrocytes obtained from the test group by the mean value of number of the erythrocytes obtained from the control group. Similarly, the ratio of weight of the spleen was calculated by dividing the mean value of weight of the spleen obtained from the test group by the mean value of weight of the spleen obtained from the control group.

Structures are written as SMILES.

On to `CCOP(=O)(Cc1ccc(C(=O)Nc2ccc(Br)cc2C#N)cc1)OCC` [Compound of Example 1, 4-diethoxyphosphinoylmethyl-N-(4-bromo-2-cyanophenyl)benzamide], for which, in series [1], the “Increasing ratio (%) of the plasma HDLC concentration” value (“Increasing ratio (%)” for short) was 193%. Also, in the series with erythrocytes, the “Ratio of number of the erythrocytes” value was 0.96 and the “Ratio of weight of the spleen” value is listed as 1.13.
On to `CCOP(=O)(Cc1ccc(C(=O)Nc2ccc(Cl)cc2C#N)cc1)OCC` [Compound of Example 2], for which the “Increasing ratio (%)” value in series [1] stood at 196%. Besides, in the series on erythrocytes, the “Ratio of number of the erythrocytes” value is recorded as 0.97 and the “Ratio of weight of the spleen” value was 1.09.
In the case of `CCOP(=O)(Cc1ccc(C(=O)Nc2ccc(C#N)cc2Cl)cc1)OCC` [Compound of Example 3], the “Increasing ratio (%)” value in series [1] is 187%.
The same measure, in the same setting: the same measure for `CCOP(=O)(Cc1ccc(C(=O)Nc2ccc(I)cc2C#N)cc1)OCC` [Compound of Example 4]: 187%.
Consider `CCOP(=O)(Cc1ccc(C(=O)Nc2ccc(C#N)cc2Br)cc1)OCC` [Compound of Example 5], for which the “Increasing ratio (%)” value in series [1] was 222%. For the same compound, in the series with erythrocytes, the “Ratio of number of the erythrocytes” value came out at 1.07 and the “Ratio of weight of the spleen” value came out at 0.94.
For the compound `CCOP(=O)(Cc1ccc(C(=O)Nc2ccc(C#N)cc2I)cc1)OCC` [Compound of Example 7], the “Increasing ratio (%)” value in series [1] is reported as 184%.

For the origin of these results see EP0402033A1, “Carboxamide derivatives” (OTSUKA PHARMACEUTICAL FACTORY, INC., priority 1989, dated 1990).
